For one assay, the system named is SJSA-1 cells. The experiment in a line: Protocol B: SJSA-1 CellTiter-Glo luminescent cell viability assay.
For another assay, the target named is MDM2-p53 interaction (Homo sapiens (Human), UniProt Q00987). The settings on record: for inhibition at 0.001 µM: read-out: MDM2 % inhibition @0.0010; for inhibition at 0.03 µM: read-out: MDM2 % inhibition @0.030.
Setting [1] is: read-out: SJSA1 IC50, Protocol B, SJSA-1.
The mark [2] stands for this setting: read-out: SJSA1 IC50 (μM) (Protocol B), SJSA-1, Protocol B.

Read-outs that look alike come from different tables or passages of the source.

Sequence of MDM2-p53 interaction (Q00987 whole entry): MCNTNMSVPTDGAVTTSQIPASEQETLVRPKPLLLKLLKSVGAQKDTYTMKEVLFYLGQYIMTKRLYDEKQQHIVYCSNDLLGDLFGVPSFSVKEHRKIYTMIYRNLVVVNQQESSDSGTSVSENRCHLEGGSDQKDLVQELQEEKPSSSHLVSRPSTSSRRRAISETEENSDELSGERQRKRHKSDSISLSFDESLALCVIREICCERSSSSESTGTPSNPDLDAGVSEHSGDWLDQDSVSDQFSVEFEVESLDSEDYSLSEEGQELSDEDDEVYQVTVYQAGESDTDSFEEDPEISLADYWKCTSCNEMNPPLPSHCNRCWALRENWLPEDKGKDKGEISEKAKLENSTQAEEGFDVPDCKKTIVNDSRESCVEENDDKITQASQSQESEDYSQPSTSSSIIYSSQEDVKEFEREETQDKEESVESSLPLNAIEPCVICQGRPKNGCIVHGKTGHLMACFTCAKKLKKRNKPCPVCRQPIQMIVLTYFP
Procedure for SJSA-1 cells: Protocol B: SJSA-1 and SN40R2 Assays
The CellTiter-Glo® Luminescent Cell Viability Assay is a homogeneous method to determine the number of viable cells in culture based on quantitation of the ATP present, which signals the presence of metabolically active cells. […] 100 μl of CTG reagent (Promega #G7573) was added to all wells and luminescence was measured on the topcount. The EC50 values were determined from a sigmoidal 4 parameter curve fit using XLfit in conjunction with Activity Base (IDBS; Guildford, Surrey, UK).

As for `CCC(O)(c1cc(F)c2c(c1)C(=O)N(Cc1ccc(C#N)cn1)[C@@]2(O[C@H]1CCOC1)c1ccc(Cl)cc1)c1ccn(C)n1` (single isomer, unassigned) [Example 336], the concentration for half-maximal inhibition (IC50) in the assay on SJSA-1 cells (setting [1]) came out at 0.16 µM. For the same molecule, at MDM2-p53 interaction, the inhibition at 0.001 µM turned out to be 56%.

For the molecule `Cn1cc(C(C)(O)c2cc(F)c3c(c2)C(=O)N(Cc2ncc(F)cc2F)[C@@]3(OCC2(O)CC2)c2ccc(Cl)cc2)cn1` (single isomer, unassigned) [Example 350], the half-inhibitory concentration (IC50) with SJSA-1 cells (setting [2]) was 0.51 µM. The “MDM2 % at stated concentration” value at MDM2-p53 interaction (at 0.030 μM) is 54%@0.030. For `Cn1cc(C(C)(O)c2cc(F)c3c(c2)C(=O)N(Cc2ncc(F)cc2F)[C@@]3(OCC2(O)CC2)c2ccc(Cl)cc2)cn1` (single isomer, unassigned) [Example 351], the IC50 in the assay with SJSA-1 cells (setting [2]) was found to be 4.3 µM. At MDM2-p53 interaction (at 0.10 μM), the “MDM2 % at stated concentration” value was found to be 25%@0.10. Turning to `CCC(O)(c1cc(F)c2c(c1)C(=O)N(Cc1ccc(C#N)cn1)[C@@]2(O[C@H]1CCOC1)c1ccc(Cl)cc1)c1cnn(C)c1` (single isomer, unassigned) [Example 358], the IC50 in the assay with SJSA-1 cells (setting [2]) was 0.039 µM. For the same molecule, the “MDM2 % at stated concentration” value on MDM2-p53 interaction worked out at 74%@0.0010. Regarding `CCC(O)(c1cc(F)c2c(c1)C(=O)N(Cc1ccc(C#N)cn1)[C@@]2(O[C@H]1CCOC1)c1ccc(Cl)cc1)c1cnn(C)c1` (single isomer, unassigned) [Example 359], in the assay with SJSA-1 cells (setting [2]), the IC50 worked out at 3.9 µM. At MDM2-p53 interaction (at 0.10 μM), the “MDM2 % at stated concentration” value turned out to be 50%@0.10. On to `CO[C@]1(c2ccc(Cl)cc2)c2c(F)cc(C(C)(O)C3CCN(C(C)=O)CC3)cc2C(=O)N1Cc1ncc(Cl)cc1CO` (single isomer, unassigned) [Example 424], for which the IC50 with SJSA-1 cells (Homo sapiens, SJSA-1, read-out: SJSA1 IC50 (μM), Protocol B, SJSA-1) amounted to 0.69 µM. Also, the inhibition at 0.003 µM at MDM2-p53 interaction (read-out: MDM2 % inhibition @0.0030) stood at 45%.

As to `CCC(O)(c1cc(F)c2c(c1)C(=O)N(Cc1ccc(C#N)nc1)[C@@]2(O[C@H]1CCOC1)c1ccc(Cl)cc1)c1cn(C)cn1` (single isomer, unassigned) [Example 432], the half-maximal inhibitory concentration (IC50) with SJSA-1 cells (setting [1]) was found to be 6.2 µM. Moreover, the inhibition at 0.03 µM on MDM2-p53 interaction was found to be 45%. In the case of `CCC(O)(c1cc(F)c2c(c1)C(=O)N(Cc1ncc(Cl)cn1)[C@@]2(OCC1(CO)CC1)c1ccc(Cl)cc1)c1cn(C)cn1` (single isomer, unassigned) [Example 477], in the assay on SJSA-1 cells (setting [1]), the half-inhibitory concentration (IC50) was 0.0091 µM. The inhibition at 0.001 µM at MDM2-p53 interaction came to 86%. For `CCC(O)(c1cc(F)c2c(c1)C(=O)N(Cc1ncc(C#N)cn1)[C@@]2(OC[C@H]1C[C@H](O)C1)c1ccc(Cl)cc1)c1cn(C)cn1` (single isomer, unassigned) [Example 483], in that order: 0.2 µM and 58%. For the molecule `CCC(O)(c1cc(F)c2c(c1)C(=O)N(Cc1ncc(Cl)cn1)[C@@]2(OCCO)c1ccc(Cl)cc1)[C@H]1CC[C@H](O)CC1` (single isomer, unassigned) [Example 519], in the assay with SJSA-1 cells (setting [1]), the IC50 worked out at 1.9 µM. Besides, the inhibition at 0.03 µM on MDM2-p53 interaction is 35%. As to `CCC(O)(CN1CCNCC1)c1cc(F)c2c(c1)C(=O)N(Cc1ncc(Cl)cn1)[C@@]2(OCC1(F)COC1)c1ccc(Cl)cc1` (single isomer, unassigned) [Example 539], the IC50 in the assay with SJSA-1 cells (setting [1]) was 0.092 µM. In addition, the inhibition at 0.001 µM at MDM2-p53 interaction was found to be 41%. As to `CCC(O)(c1cc(F)c2c(c1)C(=O)N(Cc1ncc(Cl)cn1)[C@@]2(O[C@H]1CCOC1)c1ccc(Cl)cc1)C1(F)CCNCC1` (single isomer, unassigned) [Example 541], the IC50 with SJSA-1 cells (setting [1]) amounted to 0.014 µM. Moreover, the inhibition at 0.0003 µM on MDM2-p53 interaction (read-out: MDM2 % inhibition @0.00030) stood at 64%.

On to `CC[C@](O)(c1cc(F)c2c(c1)C(=O)N(Cc1ncc(Cl)cn1)[C@@]2(O[C@H]1CCOC1)c1ccc(Cl)cc1)C1CCN(C)CC1` [Example 567, (3R)-3-(4-chlorophenyl)-2-[(5-chloropyrimidin-2-yl)methyl]-4-fluoro-6-[(1R)-1-hydroxy-1-(1-methylpiperidin-4-yl)propyl]-3-[(3S)-oxolan-3-yloxy]-2,3-dihydro-1H-isoindol-1-one], for which the inhibition at 0.1 µM on MDM2-p53 interaction (read-out: MDM2 % inhibition @0.10) was 57%.
